How the values were obtained:
Hsp70 ATPase = biological target: T1, Hsp70 ATPase (Homo sapiens, UniProt P0DMV8); assay: Inhibition of Hsp70 ATPase activity (malachite green); assay type: biochemical; conditions: 200 μM; repeated screening carried out twice; Hsp70/Hsp40, 1 mM ATP; read-out: Inhibitory rate (%) on activity of Hsp70 ATPase
T1 construct: made in house; host or cells: E. coli
Description: (1) Protein: Humanized Hsp70, Hsp40, expressed by E. coli.
(2) Sample to be tested: 26 compound solids with different colors and states. Positive drugs AZ (CAS:1054543-47-3) and VER 155008 (CAS: 1134156-31-2) were synthesized in the laboratory.
(4) ATPase Assay buffer: • 0.017% Triton X-100; • 100 mM Tris-HCl; • 20 mM KCl; • 6 mM MgCl2, pH 7.4.
1) 13.08 μl DnaK (0.15 mg/mL, 2.14 μM), 1.96 μl DnaJ (1 mg/mL, 25 μM) were dissolved in 7.96 μl Assay Buffer (0.017% Triton X-100, 100 mM Tris-HCl, 20 mM KCl, and 6 mM MgCl2, pH 7.4), and the resultant solution was added to each well of the 96 well plate;
2) to each well of the 96 well plate, 1 μL sample to be tested (5 mM) or DMSO (solvent) was added, and vortexed with a Vortex agitator for 10 min; and then standing at 37° C. for 30 min;
3) to each well, 1 μL 25 mM ATP was added, to trigger the enzymatic reaction; (in each well, the final reaction volume was 25 μL, the final concentration of DnaK was 1.12 μM, the final concentration of DnaJ was 1.96 μM, the final concentration of DMSO was 4%, the final concentration of Triton X-100 was 0.01%, the final concentration of ATP was 1 mM, and the final concentration of sample to be tested was 200 μM), the enzymatic reaction was carried out at 37° C. for 3 h;
4) 80 μL Malachite green staining solution was then added to each well, and was vortexed gently;
5) 10 μL of 34% citrate sodium was then added immediately, and vortexed gently, to stop the ATP hydrolysis not caused by ATPase;
6) the resultant mixture was mixed thoroughly at 37° C. for 15 min, and OD620 was measured.
The inhibitory rate of Hsp70 ATPase activity is calculated in accordance with the following formula: Inhibitory rate (%)=(DMSO well OD−Experimental well OD)/(DMSO well OD−Blank well OD)×100
Criteria for preliminary screening: during preliminary screening, an example compound is regarded as effective in inhibition as long as its inhibitory rate is above 20% for Hsp70 ATPase at 200 μM.

SK/Lap^R1.0 = assay: CDI of example compounds and Lapatinib (ATPlite cell survival); assay type: cell-based; conditions: compound 5 μM + Lapatinib 1 μM, 72 h; secondary Lapatinib-resistant human breast cancer cells; CDI<1 synergistic
Description: (§1) Cells: (BT474 and SK-BR3 are Lapatinib-sensitive human breast cancer cell strains; BT/LapR and SK/LapR are secondary Lapatinib-resistant human breast cancer cell strains upon Lapatinib stimulation; MDA-MB-361 and MDA-MB-453 are natural Lapatinib-resistant human breast cancer cell strains. BT474, MDA-MB-361, SK-BR3 and MDA-MB-453 are from American Type Culture Collection (ATCC))
(§2) In a 100 mm culture dish full of adherent cells, digestion with 1 ml 0.25% pancreatin (GIBCO) was carried out at 37° C. for 5 min, and the reaction was stopped with 2 ml medium (containing 10% FBS, GIBCO). The cells were dispersed and collected. After cell count, the cells were diluted to a concentration of 1×10^5 cells/ml, and were seeded to a 96-well plate at 50 μl/well, 5000 cell/well, 60 wells in total, PBS instead of cells was added to the wells of the outmost circle, and the incubation was carried out at 37° C. for 24 h for adherence.
(§3) For the sample group, samples to be tested were diluted with DMSO to a final concentration of 5 μM; to control wells, the medium containing the same concentration of solvent corresponding to the compound was added, the concentrations of the compounds were identical in each well, 5 wells in parallel were set for each concentration, 25 μL/well, and 25 μL medium was added to each well (for the combination group, 25 μL Lapatinib was added to reach a final concentration of 1 μM). The incubation was carried out at 37° C. for 72 h.
(§4) To each well, 50 μL ATPlite kit substrate solution was added. The plate was under shaking for 3 min, and was then placed in dark for 10 min. The lysis supernatant was drawn at 100 μL/well, and placed in a luminescent plate. The incubated luminescent plate was placed in an iluminescence apparatus, and the iluminescent value was read.
(§5) Data Processing Cell survival rate (%)=Experimental group RLU/control group RLU×100%
(§6) Coefficient of drug interaction (CDI) is used to evaluate the interaction of two drugs, CDI is calculated in accordance with the following formula: CDI=AB/(A×B)×100%. The calculation is performed according to the number of live cells (luminescent value), if CDI<1, the two drugs have a synergistic effect; if CDI<0.7, the synergistic effect is very significant; if CDI=1, the effect of the two drugs in combination is the sum of the effects of the two drugs; if CDI>1, the two drugs have an antagonistic effect.

BT/Lap^R1.0 = assay: as above; assay type: cell-based; conditions: compound 5 μM + Lapatinib 1 μM, 72 h; secondary Lapatinib-resistant human breast cancer cells; CDI<1 synergistic
Description: as §1, §2, §3, §4, §5, §6

MDA-MB-361 = assay: as above; assay type: cell-based; design: key: CDI = AB/(A×B); <1 synergistic; conditions: compound 5 μM + Lapatinib 1 μM, 72 h; natural Lapatinib-resistant human breast cancer cells; CDI<1 synergistic
Description: as §1, §2, §3, §4, §5, §6

MDA-MB-453 = assay: as above; assay type: cell-based; design: key: CDI = AB/(A×B); <1 synergistic; conditions: compound 5 μM + Lapatinib 1 μM, 72 h; natural Lapatinib-resistant human breast cancer cells; CDI<1 synergistic
Description: as §1, §2, §3, §4, §5, §6

SK-BR3 = assay: as above; assay type: cell-based; design: key: CDI = AB/(A×B); <1 synergistic; conditions: compound 5 μM + Lapatinib 1 μM, 72 h; Lapatinib-sensitive human breast cancer cells; CDI<1 synergistic
Description: as §1, §2, §3, §4, §5, §6

BT474 = assay: as above; assay type: cell-based; design: key: CDI = AB/(A×B); <1 synergistic; conditions: compound 5 μM + Lapatinib 1 μM, 72 h; Lapatinib-sensitive human breast cancer cells; CDI<1 synergistic, <0.7 very significant, >1 antagonistic
Description: as §1, §2, §3, §4, §5, §6

T1 sequence (P0DMV8 2-641 limits assumed): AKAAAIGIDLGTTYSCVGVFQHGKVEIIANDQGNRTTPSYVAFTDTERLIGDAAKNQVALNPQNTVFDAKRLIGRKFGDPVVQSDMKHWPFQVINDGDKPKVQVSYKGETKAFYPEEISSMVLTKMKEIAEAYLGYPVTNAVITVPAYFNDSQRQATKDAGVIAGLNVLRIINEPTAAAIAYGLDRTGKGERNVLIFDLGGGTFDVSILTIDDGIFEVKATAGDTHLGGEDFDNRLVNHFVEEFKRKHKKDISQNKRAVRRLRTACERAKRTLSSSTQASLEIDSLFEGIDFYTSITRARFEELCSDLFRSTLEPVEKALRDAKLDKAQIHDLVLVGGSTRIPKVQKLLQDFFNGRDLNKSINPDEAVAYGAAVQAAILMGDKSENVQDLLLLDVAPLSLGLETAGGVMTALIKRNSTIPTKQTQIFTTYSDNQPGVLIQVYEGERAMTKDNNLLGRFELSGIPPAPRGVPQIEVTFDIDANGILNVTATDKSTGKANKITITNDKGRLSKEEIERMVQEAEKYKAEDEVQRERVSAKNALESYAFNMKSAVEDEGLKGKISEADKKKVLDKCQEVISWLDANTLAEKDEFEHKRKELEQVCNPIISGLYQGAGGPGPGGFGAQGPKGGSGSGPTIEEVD

SMILES | inhibition at 200 µM (Hsp70 ATPase) [%] | CDI of example compounds and Lapatinib, SK/Lap^R1.0 (SK/Lap^R1.0) | CDI of example compounds and Lapatinib, BT/Lap^R1.0 (BT/Lap^R1.0) | CDI of example compounds and Lapatinib, MDA-MB-361 (MDA-MB-361) | CDI of example compounds and Lapatinib, MDA-MB-453 (MDA-MB-453) | CDI of example compounds and Lapatinib, SK-BR3 (SK-BR3) | CDI of example compounds and Lapatinib, BT474 (BT474)
COc1cc(/C=C/C(=O)NC(CC(C)C)NC(=S)Nc2ccccn2)cc(OC)c1OC (stereo not shown) [Example 31, (2E)-N-[3-methyl-1-(3-pyridin-2-ylthioureido)butyl]-3-(3,4,5-trimethoxyphenyl) acrylamide] | 10.5 | 0.95 | 1.2 | 0.85 | 1.38 | 1 | 1.01
CC(C)(C)C(NC(=O)/C=C/c1ccccc1)NC(=S)Nc1ccccc1 (stereo not shown) [Example 40, (2E)-N-[2,2-dimethyl-1-(3-phenylthioureido)propyl] cinnamamide] | 27.3 | 0.99 | 0.95 | 0.95 | 1.37 | 1.14 | 0.85
COc1cc(/C=C/C(=O)NC(CC(C)(C)C)NC(=S)Nc2cccnc2)cc(OC)c1OC (stereo not shown) [Example 33, (2E)-N-[3,3-dimethyl-1-(3-pyridin-3-ylthioureido)butyl]-3-(3,4,5-trimethoxyphenyl) acrylamide] | 47.1 | 0.88 | 0.97 | 0.89 | 1.19 | 0.96 | 0.81
COc1cc(/C=C/C(=O)NC(CC(C)C)NC(=S)Nc2ccccc2)cc(OC)c1OC (stereo not shown) [Example 24, (2E)-N-[3-methyl-1-(3-phenylthioureido)butyl]-3-(3,4,5-trimethoxyphenyl) acrylamide] | 50.4 | 1 | 0.98 | 0.92 | 1.12 | 1.04 | 1.03
COc1cc(/C=C/C(=O)NC(NC(=S)Nc2ccccc2)C(C)(C)C)cc(OC)c1OC (stereo not shown) [Example 26] | 4.55 | 1.02 | 0.96 | 0.99 | 0.89 | 1.03 | 1.02
COc1cc(/C=C/C(=O)NC(NC(=S)Nc2ccccc2C)C(C)(C)C)cc(OC)c1OC (stereo not shown) [Example 44, (2E)-N-[2,2-dimethyl-1-(3-o-methylphenylthioureido)propyl]-3-(3,4,5-trimethoxyphenyl)acrylamide] | 50.5 | 0.98 | 0.93 | 0.93 | 1.12 | 0.96 | 0.94
Cc1ccccc1NC(=S)NC(NC(=O)/C=C/c1ccccc1)C(C)(C)C (stereo not shown) [Example 48, N-[2,2-dimethyl-1-(3-o-methylphenylthioureido)propyl] cinnamamide] | -0.88 | 0.99 | 0.96 | 1.15 | 1.2 | 1.15 | 0.92
CC(C)CC(NC(=O)/C=C/c1ccccc1)NC(=S)NC1CCCCC1 (stereo not shown) [Example 54, N-[1-(3-cyclohexylthioureido)-3-methylbutyl] cinnamamide] | 58.4 | 1.14 | 0.98 | 0.9 | 1.2 | 1.16 | 0.77
COc1cc(/C=C/C(=O)NC(CC(C)(C)C)NC(=S)Nc2ccccc2)cc(OC)c1OC (stereo not shown) [Example 32, (2E)-N-[3,3-dimethyl-1-(3-phenylthioureido)butyl]-3-(3,4,5-trimethoxyphenyl)acrylamide] | 44.1 | 0.89 | 1.25 | 0.91 | 1.42 | 1.13 | 0.65
COc1cc(/C=C/C(=O)NC(NC(=S)Nc2ccccn2)C(C)C)cc(OC)c1OC (stereo not shown) [Example 35, (2E)-N-[2-methyl-1-(3-pyridin-2-ylthioureido)propyl]-3-(3,4,5-trimethoxyphenyl) acrylamide] | -6.13 | 0.9 | 1.04 | 0.86 | 1.37 | 0.99 | 0.96

From patent publication US9718770B2, “Substituted thioureas as heat shock protein 70 inhibitors” (Institute of Pharmacology and Toxicology Academy of …, priority 2013, dated 2017)
